The values below come from PMC11542607 (RSC Advances, 2024).

Series [1] relates to HeLa (cervical epithelioid carcinoma). The experiment in a line: MTT cytotoxicity assay, HeLa. It counts as cell-based. The conditions noted are these: Homo sapiens, read-out: IC50 HeLa. (In general: Tetrazolium assays rely on reduction of a dye to a coloured formazan, in cell work by metabolically active cells.)
The subject of another series is MCF-7 (breast cancer). The experiment in a line: MTT cytotoxicity assay, MCF-7. It counts as cell-based. As to conditions: Homo sapiens, MCF7, read-out: IC50 MCF-7.
Series [2] deals with WI-38 normal fibroblast cell line. The experiment in a line: Cytotoxicity towards normal human cells. Type of series: cell-based. The conditions noted are these: WI-38, read-out: IC50 WI-38.
Series [3] relates to HCT116 (colorectal carcinoma). The series is described as follows: MTT cytotoxicity assay, HCT-116. As to conditions: Homo sapiens, HCT-116, read-out: IC50 HCT-116. Type of series: cell-based.
The target of a further series is TOP-II (Homo sapiens, UniProt P11388). The series is described as follows: TOP-II enzyme inhibition assay. Type of series: biochemical.
Sequence of TOP-II (P11388 whole entry): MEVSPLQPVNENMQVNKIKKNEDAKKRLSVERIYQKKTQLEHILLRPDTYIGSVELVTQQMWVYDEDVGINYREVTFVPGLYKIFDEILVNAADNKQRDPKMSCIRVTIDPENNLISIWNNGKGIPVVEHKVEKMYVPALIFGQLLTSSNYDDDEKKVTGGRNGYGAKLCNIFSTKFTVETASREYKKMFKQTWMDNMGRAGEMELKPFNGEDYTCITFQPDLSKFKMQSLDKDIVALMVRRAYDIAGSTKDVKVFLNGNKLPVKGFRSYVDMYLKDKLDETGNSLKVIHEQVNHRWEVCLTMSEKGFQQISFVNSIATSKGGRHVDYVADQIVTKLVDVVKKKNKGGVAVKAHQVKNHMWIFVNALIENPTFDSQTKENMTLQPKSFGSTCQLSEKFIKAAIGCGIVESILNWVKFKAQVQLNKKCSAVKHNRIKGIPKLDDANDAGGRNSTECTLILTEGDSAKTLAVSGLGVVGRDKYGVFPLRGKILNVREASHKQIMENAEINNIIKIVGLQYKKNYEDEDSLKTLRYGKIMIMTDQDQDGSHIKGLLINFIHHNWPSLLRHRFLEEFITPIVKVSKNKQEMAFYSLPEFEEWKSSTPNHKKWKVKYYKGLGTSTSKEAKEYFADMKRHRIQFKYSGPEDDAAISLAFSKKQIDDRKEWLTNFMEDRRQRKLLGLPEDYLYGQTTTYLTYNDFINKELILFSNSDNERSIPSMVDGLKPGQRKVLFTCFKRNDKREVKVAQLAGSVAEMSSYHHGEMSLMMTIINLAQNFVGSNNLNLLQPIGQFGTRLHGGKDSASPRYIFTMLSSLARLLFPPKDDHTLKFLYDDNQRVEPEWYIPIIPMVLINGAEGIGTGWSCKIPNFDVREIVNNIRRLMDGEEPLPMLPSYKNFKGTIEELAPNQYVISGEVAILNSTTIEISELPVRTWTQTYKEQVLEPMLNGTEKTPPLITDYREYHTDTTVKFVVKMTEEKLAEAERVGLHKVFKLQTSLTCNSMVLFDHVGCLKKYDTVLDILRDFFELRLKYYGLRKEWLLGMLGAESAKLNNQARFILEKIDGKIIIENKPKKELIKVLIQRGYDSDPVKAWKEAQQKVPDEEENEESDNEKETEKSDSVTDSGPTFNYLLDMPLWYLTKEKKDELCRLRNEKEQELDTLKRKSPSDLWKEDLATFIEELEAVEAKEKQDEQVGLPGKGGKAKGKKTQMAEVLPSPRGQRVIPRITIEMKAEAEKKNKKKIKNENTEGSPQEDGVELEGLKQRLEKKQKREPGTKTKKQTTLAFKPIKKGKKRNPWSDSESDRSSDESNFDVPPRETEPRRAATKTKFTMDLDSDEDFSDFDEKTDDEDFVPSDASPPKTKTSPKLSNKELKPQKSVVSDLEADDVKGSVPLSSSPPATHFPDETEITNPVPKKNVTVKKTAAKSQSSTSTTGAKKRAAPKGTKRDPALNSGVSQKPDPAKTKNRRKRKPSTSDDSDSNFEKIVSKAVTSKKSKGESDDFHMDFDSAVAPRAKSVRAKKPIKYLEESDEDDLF
The next series deals with HER-2 (Homo sapiens, UniProt P04626). The series is described as follows: biochemical.
Sequence of HER-2 (P04626 23-1255): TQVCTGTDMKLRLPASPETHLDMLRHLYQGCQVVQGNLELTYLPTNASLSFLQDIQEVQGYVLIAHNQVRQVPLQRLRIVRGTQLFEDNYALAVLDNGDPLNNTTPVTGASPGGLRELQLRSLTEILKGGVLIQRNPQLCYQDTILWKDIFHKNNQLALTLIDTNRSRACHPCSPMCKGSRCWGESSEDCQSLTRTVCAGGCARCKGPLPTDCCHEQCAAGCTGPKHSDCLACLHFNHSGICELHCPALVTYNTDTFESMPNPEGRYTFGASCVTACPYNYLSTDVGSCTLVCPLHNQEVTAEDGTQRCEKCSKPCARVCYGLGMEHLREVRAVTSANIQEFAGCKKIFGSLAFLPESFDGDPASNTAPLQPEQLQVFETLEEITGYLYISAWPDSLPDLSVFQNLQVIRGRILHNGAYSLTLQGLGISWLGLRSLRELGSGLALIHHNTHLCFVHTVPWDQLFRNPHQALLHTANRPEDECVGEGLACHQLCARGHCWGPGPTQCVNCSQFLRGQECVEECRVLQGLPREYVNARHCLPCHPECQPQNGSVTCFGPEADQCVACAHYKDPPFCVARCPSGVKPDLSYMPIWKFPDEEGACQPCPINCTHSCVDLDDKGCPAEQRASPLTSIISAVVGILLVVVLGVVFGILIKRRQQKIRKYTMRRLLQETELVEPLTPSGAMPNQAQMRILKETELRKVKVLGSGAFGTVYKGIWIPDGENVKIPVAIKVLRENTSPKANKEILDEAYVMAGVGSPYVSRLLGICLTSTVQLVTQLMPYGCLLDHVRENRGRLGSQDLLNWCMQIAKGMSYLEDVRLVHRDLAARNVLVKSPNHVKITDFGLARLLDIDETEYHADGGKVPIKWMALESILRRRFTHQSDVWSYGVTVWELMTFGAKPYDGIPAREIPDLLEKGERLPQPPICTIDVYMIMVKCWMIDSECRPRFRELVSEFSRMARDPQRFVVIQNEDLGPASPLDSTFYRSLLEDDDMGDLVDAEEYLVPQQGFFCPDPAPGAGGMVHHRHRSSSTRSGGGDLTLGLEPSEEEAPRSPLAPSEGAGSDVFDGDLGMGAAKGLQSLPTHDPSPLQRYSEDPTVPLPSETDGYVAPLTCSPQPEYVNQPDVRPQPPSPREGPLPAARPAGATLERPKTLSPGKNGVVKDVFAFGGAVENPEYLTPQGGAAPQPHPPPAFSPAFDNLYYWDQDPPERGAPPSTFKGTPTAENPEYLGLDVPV
Another series deals with T1, aromatase (ARO) (Homo sapiens, UniProt P11511).
T1 sequence (P11511 1-503): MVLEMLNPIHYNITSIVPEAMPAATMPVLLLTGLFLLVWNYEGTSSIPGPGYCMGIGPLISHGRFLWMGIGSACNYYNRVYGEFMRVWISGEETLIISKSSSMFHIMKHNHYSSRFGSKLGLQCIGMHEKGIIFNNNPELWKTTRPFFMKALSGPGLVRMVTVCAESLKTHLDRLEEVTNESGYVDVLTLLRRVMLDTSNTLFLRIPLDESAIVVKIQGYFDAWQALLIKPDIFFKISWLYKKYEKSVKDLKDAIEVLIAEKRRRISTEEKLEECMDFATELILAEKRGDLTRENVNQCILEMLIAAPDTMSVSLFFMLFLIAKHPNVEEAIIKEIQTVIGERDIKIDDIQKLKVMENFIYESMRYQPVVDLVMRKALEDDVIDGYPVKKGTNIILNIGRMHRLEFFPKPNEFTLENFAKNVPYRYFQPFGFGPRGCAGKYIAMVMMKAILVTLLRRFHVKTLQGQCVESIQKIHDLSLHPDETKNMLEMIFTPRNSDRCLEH
The experiment in a line: Aromatase enzyme inhibition assay. Type of series: biochemical.

The target of the next series is EGFR (Homo sapiens, UniProt P00533). The experiment in a line: EGFR enzyme inhibition assay. Type of series: biochemical.
Sequence of EGFR (P00533 25-1210): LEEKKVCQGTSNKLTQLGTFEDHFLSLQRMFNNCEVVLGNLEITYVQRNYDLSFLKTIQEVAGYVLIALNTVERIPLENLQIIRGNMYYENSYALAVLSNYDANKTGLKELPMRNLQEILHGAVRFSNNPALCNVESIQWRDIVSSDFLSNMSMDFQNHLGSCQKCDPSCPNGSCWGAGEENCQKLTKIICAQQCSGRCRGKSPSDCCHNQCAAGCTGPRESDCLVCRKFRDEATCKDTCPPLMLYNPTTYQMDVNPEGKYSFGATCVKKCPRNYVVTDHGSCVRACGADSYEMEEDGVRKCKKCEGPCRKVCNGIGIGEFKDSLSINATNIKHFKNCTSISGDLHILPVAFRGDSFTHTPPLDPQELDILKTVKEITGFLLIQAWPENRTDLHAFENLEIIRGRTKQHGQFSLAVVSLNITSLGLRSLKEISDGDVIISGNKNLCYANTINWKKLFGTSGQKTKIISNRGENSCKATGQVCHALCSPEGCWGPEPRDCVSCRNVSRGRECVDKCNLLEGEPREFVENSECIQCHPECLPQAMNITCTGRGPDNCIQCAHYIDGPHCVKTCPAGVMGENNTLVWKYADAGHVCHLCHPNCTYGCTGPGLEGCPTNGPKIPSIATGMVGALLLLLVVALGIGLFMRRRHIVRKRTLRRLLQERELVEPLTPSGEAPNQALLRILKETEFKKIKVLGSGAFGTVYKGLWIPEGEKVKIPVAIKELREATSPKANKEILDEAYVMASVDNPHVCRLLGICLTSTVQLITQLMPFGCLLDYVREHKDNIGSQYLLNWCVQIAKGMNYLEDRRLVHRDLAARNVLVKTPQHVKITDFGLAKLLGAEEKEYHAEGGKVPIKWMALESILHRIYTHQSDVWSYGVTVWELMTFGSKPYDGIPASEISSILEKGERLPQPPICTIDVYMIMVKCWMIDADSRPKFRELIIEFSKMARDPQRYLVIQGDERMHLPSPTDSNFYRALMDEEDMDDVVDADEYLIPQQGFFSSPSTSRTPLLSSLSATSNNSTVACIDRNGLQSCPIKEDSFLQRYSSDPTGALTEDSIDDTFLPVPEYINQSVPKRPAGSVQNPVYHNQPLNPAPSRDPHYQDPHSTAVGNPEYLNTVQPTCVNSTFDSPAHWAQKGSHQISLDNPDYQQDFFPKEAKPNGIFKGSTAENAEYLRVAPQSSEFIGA
Series [4] in a line: Body weight in DMBA-induced breast cancer model. As to conditions: DMBA model mice; for Body weight at day 20: control 28.91 g, DMBA 35.2 g; for Body weight at start: start of 20 days period, control 20.51 g, DMBA 18.8 g. Type of series: in vivo.
In series [5] the test system is DMBA-induced breast cancer. The series is described as follows: In vivo DMBA-induced breast cancer model. Also on record: species or system mice. As to conditions: day 20; for Final tumor volume: untreated DMBA group approximately 2.4 mm^3.
The subject of another series is caspase-3. The series is described as follows: Caspase-3 immunostaining of mammary tissue in DMBA model. It counts as in vivo, mice. The conditions noted are these: for caspase-3 positive cells: immunostaining, mean ± standard error (n = 5), control 4.5 ± 0.2, DMBA 0.5 ± 0.1.
The subject of a further series is MCF-7 cells. The series is described as follows: Flow cytometry cell cycle analysis. It counts as cell-based, human. On the technique in general: In flow cytometry, cells or beads pass a laser one at a time.

The structures appear in SMILES notation.

With `Cc1cc(N2CCN(C(=O)CN3CCOCC3)CC2)n2ncnc2n1` [Compound 7e, 1-(4-(5-Methyl-[1,2,4]triazolo[1,5-a]pyrimidin-7-yl)piperazin-1-yl)-2-morpholinoethanone], the IC50 in series [1] came out at 78.5 ± 4.2 µM; in the series on MCF-7 (breast cancer) it was 84.7 ± 4.1 µM; in series [2] it was 26.3 ± 1.9 µM; in series [3], 88.4 ± 4.5 µM.

Regarding `Cc1cc(Sc2nnc(NC(=O)Nc3ccccc3)s2)n2ncnc2n1` [Compound 9a, 1-(5-((5-Methyl-[1,2,4]triazolo[1,5-a]pyrimidin-7-yl)thio)-1,3,4-thiadiazol-2-yl)-3-phenylurea], the half-maximal inhibitory concentration (IC50) in [1] turned out to be 25.2 ± 2 µM; in the series with MCF-7 (breast cancer), 37.2 ± 2.3 µM; in series [2], 48.4 ± 2.6 µM; in series [3], 44.4 ± 2.6 µM.

As for `Cc1cc(Sc2nnc(NC(=O)Nc3ccc(Cl)cc3)s2)n2ncnc2n1` [Compound 9b, 1-(4-Chlorophenyl)-3-(5-((5-methyl-[1,2,4]triazolo[1,5-a]pyrimidin-7-yl)thio)-1,3,4-thiadiazol-2-yl)urea], the IC50 in series [1] was 87.7 ± 4.4 µM; in the series with MCF-7 (breast cancer) it was above 100 µM; in series [2], 64.7 ± 3.5 µM; in series [3], above 100 µM.

As for `Cc1ccc(NC(=O)Nc2nnc(Sc3cc(C)nc4ncnn34)s2)cc1` [Compound 9c, 1-(5-((5-Methyl-[1,2,4]triazolo[1,5-a]pyrimidin-7-yl)thio)-1,3,4-thiadiazol-2-yl)-3-(p-tolyl)urea], the IC50 in series [1] came out at 51.9 ± 2.8 µM; with MCF-7 (breast cancer), 46.1 ± 2.5 µM; in series [2], 18.1 ± 1.3 µM; in series [3], 58.5 ± 3.3 µM.

With `COc1ccc(NC(=O)Nc2nnc(Sc3cc(C)nc4ncnn34)s2)cc1` [Compound 9d, 1-(4-Methoxyphenyl)-3-(5-((5-methyl-[1,2,4]triazolo[1,5-a]pyrimidin-7-yl)thio)-1,3,4-thiadiazol-2-yl)urea], the IC50 in [1] was 82.4 ± 4.1 µM; in the series with MCF-7 (breast cancer), 92.4 ± 4.4 µM; in [2], above 100 µM; in series [3], above 100 µM.

Take `Cc1cc(Sc2nc(-c3ccc(Br)cc3)c(C#N)c(=O)[nH]2)n2ncnc2n1` [Compound 11a, 4-(4-Bromophenyl)-2-((5-methyl-[1,2,4]triazolo[1,5-a]pyrimidin-7-yl)thio)-6-oxo-1,6-dihydropyrimidine-5-carbonitrile]: the IC50 turned out to be 33.4 ± 2.3 µM in series [1], 30.5 ± 2.1 µM in the series with MCF-7 (breast cancer), 75.9 ± 4.1 µM in series [2] and 41 ± 2.4 µM in series [3].

For the compound `Cc1cc(Sc2nc(-c3ccc(Cl)cc3)c(C#N)c(=O)[nH]2)n2ncnc2n1` [Compound 11b, 4-(4-Chlorophenyl)-2-((5-methyl-[1,2,4]triazolo[1,5-a]pyrimidin-7-yl)thio)-6-oxo-1,6-dihydropyrimidine-5-carbonitrile], the IC50 in series [1] worked out at 17.5 ± 1.4 µM; with MCF-7 (breast cancer), 8.39 ± 0.6 µM; in series [2], 56.2 ± 3 µM; in series [3] it was 12.6 ± 1 µM.

On to `Cc1ccc(-c2nc(Sc3cc(C)nc4ncnn34)[nH]c(=O)c2C#N)cc1` [Compound 11c, 2-((5-Methyl-[1,2,4]triazolo[1,5-a]pyrimidin-7-yl)thio)-6-oxo-4-(p-tolyl)-1,6-dihydropyrimidine-5-carbonitrile], for which the 50% inhibitory concentration (IC50) in series [1] came out at 19.2 ± 1.6 µM; with MCF-7 (breast cancer), 9.15 ± 0.7 µM; in series [2] it was 45 ± 2.4 µM; in [3], 21.5 ± 1.5 µM.

In the case of `COc1ccc(-c2nc(Sc3cc(C)nc4ncnn34)[nH]c(=O)c2C#N)cc1` [Compound 11d, 4-(4-Methoxyphenyl)-2-((5-methyl-[1,2,4]triazolo[1,5-a]pyrimidin-7-yl)thio)-6-oxo-1,6-dihydropyrimidine-5-carbonitrile], the IC50 was 63.4 ± 3.6 µM in series [1], 34.6 ± 2.3 µM with MCF-7 (breast cancer), 71.2 ± 3.9 µM in [2] and 47.9 ± 2.7 µM in series [3].

Regarding `COc1ccc(-c2nc(Sc3cc(C)nc4ncnn34)[nH]c(=O)c2C#N)cc1OC` [Compound 11e, 4-(3,4-Dimethoxyphenyl)-2-((5-methyl-[1,2,4]triazolo[1,5-a]pyrimidin-7-yl)thio)-6-oxo-1,6-dihydropyrimidine-5-carbonitrile], the half-inhibitory concentration (IC50) in series [1] came to 13.6 ± 1.1 µM; with MCF-7 (breast cancer) it was 5.92 ± 0.3 µM; in series [2] it was 60.3 ± 3.3 µM; at TOP-II, 36.7 µM; against HER-2 it was 0.116 µM; in series [3], 8.89 ± 0.8 µM. Moreover, the IC50 was 0.38 µM against aromatase (ARO) and 0.246 µM at EGFR.

Regarding `Cc1cc(Sc2nc(-c3cccc(Br)c3)c(C#N)c(=O)[nH]2)n2ncnc2n1` [Compound 11f, 4-(3-Bromophenyl)-2-((5-methyl-[1,2,4]triazolo[1,5-a]pyrimidin-7-yl)thio)-6-oxo-1,6-dihydropyrimidine-5-carbonitrile], the IC50 in series [1] was 35.9 ± 2.2 µM; in the series on MCF-7 (breast cancer) it was 22.2 ± 1.6 µM; in series [2], 77.3 ± 4.3 µM; in [3], 31.2 ± 2.2 µM.

With `Cc1cc(Sc2nnc(-c3ccccc3)o2)n2ncnc2n1` [Compound 13a, 2-((5-Methyl-[1,2,4]triazolo[1,5-a]pyrimidin-7-yl)thio)-5-phenyl-1,3,4-oxadiazole], the half-inhibitory concentration (IC50) was determined as 23.6 ± 1.9 µM in series [1], 18.6 ± 1.3 µM in the series on MCF-7 (breast cancer), 91.4 ± 4.9 µM in series [2] and 15 ± 1.2 µM in series [3].

Turning to `Cc1ccc(-c2nnc(Sc3cc(C)nc4ncnn34)o2)cc1` [Compound 13b, 2-((5-Methyl-[1,2,4]triazolo[1,5-a]pyrimidin-7-yl)thio)-5-(p-tolyl)-1,3,4-oxadiazole], the IC50 in series [1] turned out to be 39 ± 2.4 µM; with MCF-7 (breast cancer), 27.8 ± 2 µM; in series [2], 83.5 ± 4.5 µM; in series [3] it was 29.3 ± 2 µM.

On to `Cc1cc(Sc2nnc(-c3ccc([N+](=O)[O-])cc3)o2)n2ncnc2n1` [Compound 13c, 2-((5-Methyl-[1,2,4]triazolo[1,5-a]pyrimidin-7-yl)thio)-5-(4-nitrophenyl)-1,3,4-oxadiazole], for which the concentration for half-maximal inhibition (IC50) in series [1] amounted to 10.3 ± 0.9 µM; with MCF-7 (breast cancer) it was 2.42 ± 0.1 µM; in [2], 38.6 ± 2.2 µM; at TOP-II, 31.6 µM; against HER-2 it was 0.078 µM; in series [3] it was 6.1 ± 0.5 µM. Also, the IC50 was found to be 0.156 µM against aromatase (ARO) and 0.087 µM at EGFR. Further, in series [4], the “Body weight at day 20” value is 30.6 g. The “Body weight at start” value in [4] is recorded as 20.2 g. Also, the “Reduction in final tumor volume compared to untreated DMBA group” value in series [5] amounted to 62.5%. Further, the Final tumor volume entry in series [5] is “about 0.9 mm^3”. This compound also showed a caspase-3 positive cells with caspase-3 of 2.3 ± 0.3 cells. In the series on caspase-3 (mouse, in vivo), the “Increase of caspase-3 positive cells from the DMBA group” value stood at 360%. For the same compound, the “Share of the control's apoptotic activity (caspase-3)” value in the series on caspase-3 (mouse, in vivo) is on record as “about 51%”. The “Cell cycle distribution G2-M” value in the series on MCF-7 cells (DMSO control 18.18) is on record as 10.32%. The “Cell cycle distribution S” value with MCF-7 cells (DMSO control 24.83) is recorded as 37.01%. Moreover, the “Cell cycle distribution G0-G1” value in the series with MCF-7 cells (DMSO control 56.99) worked out at 52.67%.

Turning to `Cc1cc(Sc2nnc(-c3ccc(Cl)cc3)o2)n2ncnc2n1` [Compound 13d, 2-(4-Chlorophenyl)-5-((5-methyl-[1,2,4]triazolo[1,5-a]pyrimidin-7-yl)thio)-1,3,4-oxadiazole], the IC50 in [1] was 42.9 ± 2.5 µM; in the series with MCF-7 (breast cancer), 14.2 ± 1.1 µM; in series [2] it was 66.1 ± 3.8 µM; in [3], 24.8 ± 1.8 µM.

For `Cc1cc(Sc2nnc(-c3ccc(Br)cc3)o2)n2ncnc2n1` [Compound 13e, 2-(4-Bromophenyl)-5-((5-methyl-[1,2,4]triazolo[1,5-a]pyrimidin-7-yl)thio)-1,3,4-oxadiazole], the half-maximal inhibitory concentration (IC50) in series [1] was 57.4 ± 3.2 µM; in the series on MCF-7 (breast cancer) it was 42.6 ± 2.4 µM; in [2] it was above 100 µM; in series [3], 55.1 ± 3.5 µM.

For `COc1cccc2c1C(=O)c1c(O)c3c(c(O)c1C2=O)C[C@@](O)(C(=O)CO)C[C@@H]3O[C@H]1C[C@H](N)[C@H](O)[C@H](C)O1` [DOX, Doxorubicin, reference compound], in series [4], the “Body weight at day 20” value amounted to 31.8 g and the “Body weight at start” value was 19.8 g. Moreover, in series [5], the “Reduction in final tumor volume compared to untreated DMBA group” value was found to be 75% and the Final tumor volume result is listed as “approximately 0.6 mm^3”. For the same compound, half-maximal inhibition against TOP-II (IC50) was put at 34 µM. This compound returned a caspase-3 positive cells in the series on caspase-3 of 4.0 ± 0.2 cells. In the series with caspase-3 (mouse, in vivo), the “Decrease of caspase-3 positive cells from the control” value is recorded as 11% and the “Increase of caspase-3 positive cells from the DMBA group” value amounted to 700%.

The IC50 is the concentration needed to halve the response being measured.
